Data on four molecules can be found in US10976320B2, “Methods for identifying and treating cancer patients” (The Board of Trustees of the Leland Stanford Junior …, priority 2013, dated 2021).

Assay [1] has as its system NCI60 non small cell lung cancer lines expressing BRG1/BRM or deficient in both. As to conditions: BRG1/BRM-deficient vs expressing NCI60 lung lines; IC50 (μM) only plotted in FIG. 12A-B; CellMiner data; cited from earlier work.
The subject of assay [2] is ARID1A wild-type cells (293T and ES2) and ARID1A mutant cells (Hec1b, SKOV3, T47D, and TOV21G). Briefly: Synthetic lethal screen, Cell Titer Blue viability after treatment with topoisomerase inhibitors. The assay is classed as cell-based. Particulars: ARID1A mutant vs wild-type cell lines; IC50 (μM) only plotted in FIG. 11A-C; 72 h after compound addition. As to the method:
FIG. 11A-FIG. 11C. Synthetic lethal screen comparing the sensitivity of ARID1A wild-type cells (293T and ES2) and ARID1A mutant cells (Hec1b, SKOV3, T47D, and TOV21G) to treatment with topoisomerase inhibitors. Values of IC50 (μM) are plotted on the y-axis, with error bars as shown. FIG. 11A: treatment with etoposide; FIG. 11B: treatment with doxorubicin; FIG. 11C: treatment with ICRF-193.
In each case, 1500-2000 cells were plated in 100 ul per 384 well clear bottom black plate (E&K Scientific EK-30091). After 24 hours, doses of the listed compound diluted in DMSO were pinned into the plates. After 48 hours, 10 ul of Cell Titer Blue (Promega) was added, and the cells were placed back in the incubator. Fluorescence was read after another 24 hours. IC50 values (μM) are reported on the y-axis.

For assay [3], the system named is Brg1fl/fl(ERD) ESCs. Briefly: Cell cycle analysis (BrdU/7-AAD FACS) with or without caffeine. Type of assay: cell-based, mouse. Particulars: caffeine added to media 2 h before BrdU incubation; FIG. 1D. From the text: FIG. 1A-FIG. 1F. BRG1 associates with Topo2A and regulates its function. FIG. 1A, Anaphase bridges in Brg1^fl/fl and Brg1^fl/fl(ERD) ESCs. Data represent number of slides from four independent experiments±s.e.m. FIG. 1B, Co-immunoprecipitation of BRG1 and Topo2A from nuclear lysates. FIG. 1C, DNA content in Brg1^fl/fl and Brg1^fl/fl(ERD) ESCs after release from double thymidine block. FIG. 1D, Cell cycle analysis of Brg1^fl/fl and Brg1^fl/fl(ERD) ESCs with or without caffeine, an ATM/ATR inhibitor. FIG. 1E, Data represent five independent histone H3 serine 10 phosphorylation (H3(S10)P cell cycle analyses±s.e.m. FIG. 1F, Data represent the mean of the average chromosome length per cell from 40 cells from metaphase spreads of Brg1^fl/fl and Brg1^fl/fl(ERD) MEFs from two independent experiments.
The cell cycle analysis was performed using BD Biosciences BrdU-FITC FACS kit. ESCs were incubated with BrdU for 1 h and MEFs were incubated with BrdU for 4 h. Brg1^fl/fl and Brg1^fl/fl(ERD) ESCs were analysed 72 h after tamoxifen treatment. Caffeine was added to media 2 h before BrdU incubation. To determine the percent of cells in G2/M, DNA was stained with 7-AAD and analysed by FACS.

In the case of `COc1cc([C@@H]2c3cc4c(cc3[C@@H](O[C@@H]3O[C@@H]5CO[C@@H](C)O[C@H]5[C@H](O)[C@H]3O)[C@H]3COC(=O)[C@H]23)OCO4)cc(OC)c1O` [etoposide], the “sensitivity of cell lines carrying mutations in BAF subunits to the topoisomerase inhibitor” value (“sensitivity … to the topoisomerase inhibitor” below) in assay [1] and in assay [2] was “decreased sensitivity” throughout.
In the case of `Cn1c(=O)c2c(ncn2C)n(C)c1=O` [Caffeine], in assay [3], the “effect on G2/M arrest” value is listed as “overrides the G2/M arrest”.
As for ICRF-193, the “sensitivity … to the topoisomerase inhibitor” value in assay [2] is given as “no difference in the sensitivity”.
For `COc1cccc2c1C(=O)c1c(O)c3c(c(O)c1C2=O)C[C@@](O)(C(=O)CO)C[C@@H]3O[C@H]1C[C@H](N)[C@H](O)[C@H](C)O1` [doxorubicin], the “sensitivity … to the topoisomerase inhibitor” value in assay [1] and in assay [2] was “decreased sensitivity” in each case.
